Tests used:
[1] = tested on: constitutive active colorectal cancer cell (CRC) Wnt pathway (HCT116-TOP); assay: Cellular reporter assay, HCT116 Super TopFlash (TOP), constitutive active Wnt pathway; format: cell-based; conditions: Homo sapiens, HCT-116; HCT116 Super TopFlash reporter cells, luciferase expression, 36 hours incubation, dilution series 50 μM to 15 nM
Procedure: In order to discover and characterize small molecules which inhibit the constitutive active colorectal cancer cell (CRC) Wnt pathway, a cellular reporter assay was employed. The corresponding assay cell was generated by transfection of the colorectal cancer cell line HCT116 (ATCC, #CCL-247) with the Super TopFlash vector (Morin, Science 275, 1997, 1787-1790; Molenaar et al., Cell 86 (3), 1996, 391-399). The HCT116 cell line is cultivated at 37° C. and 5% CO2 in DMEM/F-12 (Life Technologies, #11320-074), supplemented with 2 mM glutamine, 20 mM HEPES, 1.4 mM pyruvate, 0.15% Na-bicarbonate and 10% foetal bovine serum (GIBCO, #10270), this cancer cell line is pathophysiological relevant since it carries a deletion of position S45 in the β-catenin gene, leading to constitutive active Wnt signaling. Stable transfectants were generated by cotransfection with pcDNA3 and selection of stable transfected cells with 1 mg/ml G418.
(§1) In preparation of the assay, the two cell lines were plated 24 hours before at 10000 cells per well of a 384 micro titre plate (MTP) in 30 μL growth medium. Selective inhibitory activity for small molecules on the mutated Wnt pathway was determined after parallel incubation of both (TOP and FOP) HCT116 reporter cell lines with a compound dilution series from 50 μM to 15 nM in steps of 3.16-fold dilutions in CAFTY buffer (130 mM NaCI, 5 mM KCI, 20 mM HEPES, 1 mM MgCl2, 5 mM NaHCO3, pH 7.4) containing 2 mM Ca^2+ and 0.01% BSA. The compounds were thereby serially prediluted in 100% DMSO and thereafter in addition 50 fold into the CAFTY compound dilution buffer (described above). From this dilution 10 μL were added to the cells in 30 μL growth medium and incubated for 36 hours at 37° C. and 5% CO2. Thereafter luciferase assay buffer (1:1 mixture of luciferase substrate buffer (20 mM Tricine, 2.67 mM MgSO4, 0.1 mM EDTA, 4 mM DTT, 270 μM Coenzyme A, 470 μM Luciferin, 530 μM ATP, ph adjusted to pH 7.8 with a sufficient volume of 5M NaOH) and Triton buffer (30 mL Triton X-100, 115 mL glycerol, 308 mg Dithiothreitol, 4.45 g Na2HPO4. 2 H2O, 3.03 g TRIS HCl, ad 1I H2O, pH 7.8) was added as equal volume to the compound solution on the cells to determine luciferase expression as a measure of Wnt signaling activity in a luminometer.

HCT116-FOP = assay: Control reporter assay, HCT116 cells with FOP control vector (non-functional TCF elements); format: cell-based; conditions: Homo sapiens, HCT-116, luciferase expression, 36 hours incubation, dilution series 50 μM to 15 nM, read-out: HCT116-FOP IC50 [M] mol/L]
Procedure: In a parallel approach, HCT116 cells were cotransfected with the FOP control vector and pcDNA3. The FOP vector is identical to the TOP construct, but it contains instead of functional TCF elements a randomized, non-functional sequence. For this transfection a stable transfected cell line was generated as well.
as §1

SMILES	IC50 [1] [µM]	IC50 (HCT116-FOP) [M]
CC1CCN(c2nnc(NC(=O)c3ccc(OC(F)(F)F)c(NC(=O)CN4CCOCC4)c3)s2)CC1 [Example 25, N-[5-(4-methylpiperidin-1-yl)-1,3,4-thiadiazol-2-yl]-3-[(morpholin-4-ylacetyl)-amino]-4-(trifluoromethoxy)-benzamide]	13	≥ 5e-05
CC(=O)N1CCN(c2nnc(NC(=O)c3ccc(OC(F)(F)F)c(NC(=O)CN4CCOCC4)c3)s2)CC1 [Example 26, N-[5-(4-acetylpiperazin-1-yl)-1,3,4-thiadiazol-2-yl]-3-[(morpholin-4-ylacetyl)amino]-4-(trifluoromethoxy)benzamide]	15	≥ 5e-05
CC1(O)CCN(c2nnc(NC(=O)c3ccc(OC(F)(F)F)c(NC(=O)CN4CCOCC4)c3)s2)CC1 [Example 27]	20	≥ 5e-05
CN1CCN(CC(=O)Nc2cc(C(=O)Nc3nnc(N4CCC(C(C)(C)O)CC4)s3)ccc2OC(F)(F)F)CC1 [Example 28, N-{5-[4-(2-hydroxypropan-2-yl)piperidin-1-yl]-1,3,4-thiadiazol-2-yI}-3-{[(4-methylpiperazin-1-yl)-acetyl]amino}-4-(trifluoromethoxy)benzamide]	20	2.69e-05
O=C(CN1CCOCC1)Nc1cc(C(=O)Nc2nnc(N3CCC(O)CC3)s2)ccc1OC(F)(F)F [Example 29, N-[5-(4-hydroxypiperidin-1-yl)-1,3,4-thiadiazol-2-yl]-3-[(morpholin-4-ylacetyl)-amino]-4-(trifluoromethoxy)-benzamide]	26.8	≥ 5e-05
COC1CCN(c2nnc(NC(=O)c3ccc(OC(F)(F)F)c(NC(=O)CN4CCOCC4)c3)s2)CC1 [Example 30, N-[5-(4-methoxypiperidin-1-yl)-1,3,4-thiadiazol-2-yl]-3-((morpholin-4-ylacetyl)-amino]-4-(trifluoromethoxy)-benzamide]	33.5	≥ 5e-05
O=C(CN1CCOCC1)Nc1cc(C(=O)Nc2nnc(N3CCCCC3)s2)ccc1OC(F)(F)F [Example 31, 3-[(morpholin-4-ylacetyl)-amino]-N-[5-(piperidin-1-yl)-1,3,4-thiadiazol-2-yl]-4-(trifluoromethoxy)benzamide]	34.1	≥ 5e-05
O=C(CN1CCOCC1)Nc1cc(C(=O)Nc2nnc(N3CCCC3)s2)ccc1OC(F)(F)F [Example 32, 3-[(morpholin-4-ylacetyl)-amino]-N-(5-(pyrrolidin-1-yl)-1,3,4-thiadiazol-2-yl)-4-(trifluoromethoxy)benzamide]	50	≥ 5e-05
CN(C)C(=O)N1CCN(c2nnc(NC(=O)c3ccc(OC(F)(F)F)c(NC(=O)CN4CCOCC4)c3)s2)CC1 [Example 33]	50	≥ 5e-05
CC1(C)CCN(c2nnc(NC(=O)c3ccc(OC(F)(F)F)c(NC(=O)CN4CCOCC4)c3)s2)CC1 [Example 34, N-[5-(4,4-dimethylpiperidin-1-yl)-1,3,4-thiadiazol-2-yl]-3-[(morpholin-4-ylacetyl)-amino]-4-(trifluoromethoxy)-benzamide]	50	≥ 5e-05
